Earlier results in patent US20240299384A1, “METHODS FOR TREATING PULMONARY HYPERTENSION IN PATIENTS WITH LEFT VENTRICULAR ASSIST DEVICE IMPLANTATION” (ACTELION PHARMACEUTICALS LTD, priority 2021, published 2024).

Experiments:
[1] = cited from earlier work
ET receptors = details: cited from earlier work

Structure (SMILES): NS(=O)(=O)Nc1ncnc(OCCOc2ncc(Br)cn2)c1-c1ccc(Br)cc1 [ACT-132577]
- time to peak plasma concentration ([1]; after the first dose of macitentan): about 30 hours
- half-life ([1]; humans): approximately 48 hours
- plasma concentrations relative to macitentan ([1]; humans): higher plasma concentrations
- affinity for the ET receptors relative to parent compound (ET receptors): lower affinity
